From ChEMBL document CHEMBL3739359, “New substituted 9-propyladenine derivatives as A2Aadenosine receptor antagonists” (Medchemcomm, 2015)

Key:
Adenosine receptor A3 [1] = molecular target: T1, Adenosine receptor A3 (Homo sapiens, UniProt P0DMS8); test: Displacement of [3H]HEMADO from human adenosine A3 receptor expressed in CHO cells; type: cell-based
Adenosine receptor A1 [2] = molecular target: T2, Adenosine receptor A1 (Homo sapiens, UniProt P30542); test: Displacement of [3H]CCPA from human adenosine A1 receptor expressed in CHO cells; type: cell-based
T2 sequence (P30542 whole entry): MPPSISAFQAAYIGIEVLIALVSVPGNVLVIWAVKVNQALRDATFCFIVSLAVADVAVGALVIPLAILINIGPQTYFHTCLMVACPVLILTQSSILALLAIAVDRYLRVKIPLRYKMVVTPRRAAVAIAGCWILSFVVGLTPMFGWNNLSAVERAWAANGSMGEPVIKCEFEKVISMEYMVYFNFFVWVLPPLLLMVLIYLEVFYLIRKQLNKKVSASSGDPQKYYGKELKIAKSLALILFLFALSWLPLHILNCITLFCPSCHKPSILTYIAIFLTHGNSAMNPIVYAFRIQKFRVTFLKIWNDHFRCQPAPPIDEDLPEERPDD

Adenosine receptor A2a [3] = molecular target: T3, Adenosine receptor A2a (Homo sapiens, UniProt P29274); test: Displacement of [3H]NECA from human adenosine A2A receptor expressed in CHO cells; type: cell-based
Adenosine receptor A2b [4] = molecular target: T4, Adenosine receptor A2b (Homo sapiens, UniProt P29275); test: Antagonist activity at human adenosine A2B receptor expressed in CHO cells assessed as inhibition of NECA-stimulated adenylyl cyclase activity; type: functional, cell-based
T4 sequence (P29275 whole entry): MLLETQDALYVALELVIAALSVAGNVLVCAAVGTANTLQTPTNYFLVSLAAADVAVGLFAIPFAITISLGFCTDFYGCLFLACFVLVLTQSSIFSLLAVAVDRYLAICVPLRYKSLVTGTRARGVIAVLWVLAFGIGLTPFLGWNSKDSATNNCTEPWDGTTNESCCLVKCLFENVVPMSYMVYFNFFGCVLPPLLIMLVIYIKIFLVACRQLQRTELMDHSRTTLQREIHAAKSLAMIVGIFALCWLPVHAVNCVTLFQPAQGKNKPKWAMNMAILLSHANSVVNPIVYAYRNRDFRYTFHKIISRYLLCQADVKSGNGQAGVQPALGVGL

Adenosine receptor A3 [5] = molecular target: T1, Adenosine receptor A3; test: Binding affinity to adenosine A3 receptor (unknown origin)
Adenosine receptor A2a [6] = molecular target: T3, Adenosine receptor A2a; test: Binding affinity to adenosine A2A receptor (unknown origin)
Adenosine receptor A1 [7] = molecular target: T2, Adenosine receptor A1; test: Binding affinity to adenosine A1 receptor (unknown origin)
Adenosine receptor A2b [8] = molecular target: T4, Adenosine receptor A2b; test: Binding affinity to adenosine A2B receptor (unknown origin)
Homo sapiens = organism: Homo sapiens; test: Selectivity ratio of Ki for adenosine A1 receptor (unknown origin) to Ki for adenosine A2A receptor (unknown origin)

T1 sequence (P0DMS8 whole entry, looked up): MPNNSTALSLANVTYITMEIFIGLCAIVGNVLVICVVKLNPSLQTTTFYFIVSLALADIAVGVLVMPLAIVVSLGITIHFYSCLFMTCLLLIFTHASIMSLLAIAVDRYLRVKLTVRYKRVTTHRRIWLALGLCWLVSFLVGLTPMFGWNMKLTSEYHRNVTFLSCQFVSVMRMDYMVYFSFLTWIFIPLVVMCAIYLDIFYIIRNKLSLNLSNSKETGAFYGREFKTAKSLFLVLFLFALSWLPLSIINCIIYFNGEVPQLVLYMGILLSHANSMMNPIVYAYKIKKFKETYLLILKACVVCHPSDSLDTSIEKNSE
T3 sequence (P29274 whole entry): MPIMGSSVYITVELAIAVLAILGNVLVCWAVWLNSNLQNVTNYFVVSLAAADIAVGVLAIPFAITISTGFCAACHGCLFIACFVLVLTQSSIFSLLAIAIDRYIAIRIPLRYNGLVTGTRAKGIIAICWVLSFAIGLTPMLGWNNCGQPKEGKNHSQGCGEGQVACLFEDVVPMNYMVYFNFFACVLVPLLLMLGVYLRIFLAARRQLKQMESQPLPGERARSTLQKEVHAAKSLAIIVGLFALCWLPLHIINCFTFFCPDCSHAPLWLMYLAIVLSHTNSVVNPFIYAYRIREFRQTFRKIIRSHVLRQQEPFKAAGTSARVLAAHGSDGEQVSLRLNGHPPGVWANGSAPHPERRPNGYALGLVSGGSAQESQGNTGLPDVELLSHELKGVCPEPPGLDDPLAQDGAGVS

Row | Structure (SMILES) | Ki (Adenosine receptor A3 [1]) [nM] | Ki (Adenosine receptor A1 [2]) [nM] | Ki (Adenosine receptor A2a [3]) [nM] | Ki (Adenosine receptor A2b [4]) [nM] | Ki (Adenosine receptor A3 [5]) [nM] | Ki (Adenosine receptor A2a [6]) [nM] | Ki (Adenosine receptor A1 [7]) [nM] | Ki (Adenosine receptor A2b [8]) [nM] | Ratio Ki (Homo sapiens)
1 | CCCn1cnc2c(N)ncnc21 | > 100000 |  |  |  |  |  |  |  | 
2 | CCCn1c(Br)nc2c(N)nc(NCCc3ccccc3)nc21 | 1160 | 373 | 27 | 1490 |  |  |  |  | 
3 | CCCn1c(Br)nc2c(N)nc(NCCCc3ccccc3)nc21 | 1950 | 583 | 284 | 6300 |  |  |  |  | 
4 | CCCn1c(Br)nc2c(N)ncnc21 | > 100000 |  |  |  |  |  |  |  | 
5 | CCCn1c(Br)nc2c(N)nc(NCc3ccccc3)nc21 | 650 | 358 | 36 | 1740 |  |  |  |  | 
6 | CCCn1c(-c2ccco2)nc2c(N)nc(NCCc3ccccc3)nc21 | 56 | 80 | 14 | 2030 |  |  |  |  | 
7 | CCCn1c(-c2ccco2)nc2c(N)nc(NCCCc3ccccc3)nc21 | 266 | 230 | 113 | 8240 |  |  |  |  | 
8 | CCn1c(-c2ccco2)nc2c(N)ncnc21 |  |  |  |  |  |  |  |  | 6
9 | CCCn1c(-c2ccco2)nc2c(NCc3ccccc3)ncnc21 | 402 | 546 | 80 | 1760 |  |  |  |  | 
10 | CCCn1c(-c2ccco2)nc2c(N)nc(NCc3ccccc3)nc21 | 29 | 138 | 6.6 | 4610 |  |  |  |  | 

Further lines, results first:

Row | Ki (Adenosine receptor A3 [1]) [nM] | Ki (Adenosine receptor A1 [2]) [nM] | Ki (Adenosine receptor A2a [3]) [nM] | Ki (Adenosine receptor A2b [4]) [nM] | Ki (Adenosine receptor A3 [5]) [nM] | Ki (Adenosine receptor A2a [6]) [nM] | Ki (Adenosine receptor A1 [7]) [nM] | Ki (Adenosine receptor A2b [8]) [nM] | Ratio Ki (Homo sapiens) | Structure (SMILES)
11 | 12600 | 3640 | 9110 | > 30000 |  |  |  |  |  | CCCn1cnc2c(N)nc(NCCCc3ccccc3)nc21
12 | 12200 | 2670 | 1020 | 1760 |  |  |  |  |  | CCCn1c(Br)nc2c(NCCCc3ccccc3)ncnc21
13 | 2520 | 1940 | 503 | 3190 |  |  |  |  |  | CCCn1c(Br)nc2c(NCCc3ccccc3)ncnc21
14 | 5840 | 7600 | 1400 | > 30000 |  |  |  |  |  | CCCn1cnc2c(N)nc(NCc3ccccc3)nc21
15 | 16900 | 19200 | 12000 | > 30000 |  |  |  |  |  | CCCn1cnc2c(NCCc3ccccc3)ncnc21
16 | 11100 | 5620 | 1180 | 7490 |  |  |  |  |  | CCCn1c(Br)nc2c(NCc3ccccc3)ncnc21
17 |  |  |  |  | 3200 | 150 | 330 | 2410 |  | CCn1cnc2c(N)nc(NCCc3ccccc3)nc21
18 | 29100 | 42800 | 22600 | > 30000 |  |  |  |  |  | CCCn1cnc2c(NCc3ccccc3)ncnc21
19 | 811 | 2440 | 547 | 9280 |  |  |  |  |  | CCCn1c(-c2ccco2)nc2c(NCCc3ccccc3)ncnc21
20 | 959 | 378 | 181 | 1870 |  |  |  |  |  | CCCn1c(-c2ccco2)nc2c(NCCCc3ccccc3)ncnc21
21 | 30000 | 18600 | 13000 | > 30000 |  |  |  |  |  | CCCn1cnc2c(NCCCc3ccccc3)ncnc21
22 |  |  |  |  | 10800 | 1340 | 8730 | 8130 |  | CCn1cnc2c(NCCc3ccccc3)ncnc21
23 | 5880 | 2330 | 738 | 9250 |  |  |  |  |  | CCCn1cnc2c(N)nc(NCCc3ccccc3)nc21
